Measurements as given in patent publication EP0771196B1, “EXCITATORY AMINO ACID RECEPTOR ANTAGONISTS” (ELI LILLY AND COMPANY, priority 1994, dated 1996).

Assays:
[1] = tested on: metabotropic glutamate receptors; assay: Displacement of 1S,3R-ACPD-sensitive [3H]glutamate binding to rat brain cell membranes; details: crude membranes of rat forebrain
Rats = assay: Conditioned active avoidance model; assay type: in vivo
Source text: This model was developed in the early 50s and 60s (Pfeiffer & Jenney, Ann. N.Y. Acad. Sci., 66:[…], 1957; Maffii, J. Pharm. Pharmacol., 11: 129-139, 1959; Cook & Weidley, Ann; N.Y. Acad. Sci., 66: […], 1957; Janke, Handbook of Experimental Pharmacology, Vol. 55/I, New York: Plenum Press, 1978) and is still the primary model used to screen compounds for antipsychotic efficacy.
Rats were individually placed in a sound attenuated, two compartment test chamber. Active avoidance testing consisted of 20 trials each day. On each trial a light (130 v.) and a sound (85 dbA) were delivered simultaneously and 5 seconds later a 5 mA shock was delivered to the floor of the chamber. After 5 seconds the footshock, the light, and the sound were terminated. The animals learned to move from one side of the chamber to the other side when the light and sound cues were presented to avoid shock (avoidance responding) or the rat moved when the shock was administered (escape). Data were tabulated as mean percent escape or mean percent to avoidance for each test day. Prior to drug testing all animals were trained to successfully avoid shock delivery on 90% of trials.
This profile on conditioned avoidance is indicative of antipsychotic efficacy.

[2] = tested on: metabotropic glutamate receptors; assay: Displacement of 1S,3R-ACPD-sensitive [3H]glutamate binding to rat brain cell membranes; details: crude membranes of rat forebrain; for IC50: inhibition of [3H]glutamate binding; for ACPD-Sensitive [^3H]Glutamate Binding % Displacement at 10 µM: 10 µM compound
Method: The binding of [^3H]glutamate was conducted with crude membranes of rat forebrain as described by Schoepp and True. Schoepp and True, Neuroscience Lett., 145, 100-104 (1992) and True and Schoepp, Society for Neuroscience Abstracts, 19, 470 (1993). IC50 values for the inhibition of [^3H]glutamate binding, or the percent displacement of [^3H]glutamate binding at a 10 µM concentration, of the formula I compound, is shown in Table II.

[3] = 0, 1, 3, 10 and 30mg/kg, i.p. 20 minutes prior to testing

| IC50 [2] | SMILES | other results |
| --- | --- | --- |
|  | NC(CCc1cccc(F)c1)(C(=O)O)[C@H]1C[C@@H]1C(=O)O (mixture of isomers) [Example 81, 2SR- and 2RS-2-amino-2-(1SR,2SR-2-carboxycyclopropan-1-yl)-4-(3-fluorophenyl)butanoic acid] | ACPD-Sensitive [^3H]Glutamate Binding % Displacement @ 0.1 µM ([1]; 0.1 µM compound): (57% @ 0.1 µM) |
| 14 nM | N[C@](CC1c2ccccc2Oc2ccccc21)(C(=O)O)[C@H]1C[C@@H]1C(=O)O [Example 72] | avoidance responding (Rats; [3]): dose related decrease in avoidance responding; escape responding (Rats; [3]): not affecting escape responding; activity in the conditioned active avoidance model (Rats; summary statement): active |
| 60 nM | NC(CCc1ccc(F)cc1F)(C(=O)O)[C@H]1C[C@@H]1C(=O)O (mixture of isomers) [Example 77, 2SR- and 2RS-2-amino-2-(1SR,2SR-2-carboxycyclopropan-1-yl)-4-(2,4-difluorophenyl)butanoic acid] |  |
|  | NC(Cc1ccc(C(=O)O)cc1)(C(=O)O)C1CC1C(=O)O (stereo not drawn) [Example 42, 2SR- and 2RS-2-amino-2-(1SR,2SR-2-carboxycyclopropan-1-yl)-3-((4-carboxy)phenyl)propanoic acid] | ACPD-Sensitive [^3H]Glutamate Binding % Displacement at 10 µM [2]: (39%) |
| 42 nM | COc1cccc(CCC(N)(C(=O)O)C2CC2C(=O)O)c1 (stereo not drawn) [Example 27, 2SR- and 2RS-2-amino-2-(1SR,2SR-2-carboxycyclopropan-1-yl) -4-(3-methoxyphenyl)butanoic acid] |  |
|  | NC(CC(Cc1ccccc1)Cc1ccccc1)(C(=O)O)[C@H]1C[C@@H]1C(=O)O (mixture of isomers) [Example 51, 2SR- and 2RS-2-amino-2-(1SR,2SR-2-carboxycyclopropan-1-yl)-4-benzyl-5-phenylpentanoic acid] | ACPD-Sensitive [^3H]Glutamate Binding % Displacement @ 1 µM ([1]; 1 µM compound): (15% @ 1 µM) |
| 280 nM | Cn1cc(CCC(N)(C(=O)O)[C@H]2C[C@@H]2C(=O)O)c2ccccc21 (mixture of isomers) [Example 61, 2SR- and 2RS-2-amino-2-(1SR,2SR-2-carboxycyclopropan-1-yl)-4-(1-methylindol-3-yl)butanoic acid] |  |
| 120 nM | NC(CCc1ccccc1F)(C(=O)O)[C@H]1C[C@@H]1C(=O)O (mixture of isomers) [Example 55, 2SR- and 2RS-2-amino-2-(1SR,2SR-2-carboxycyclopropan-1-yl)-4-(2-fluorophenyl)butanoic acid] |  |
| 590 nM | Cc1ccc(CCC(N)(C(=O)O)[C@H]2C[C@@H]2C(=O)O)cc1 (mixture of isomers) [Example 22, 2SR- and 2RS-2-amino-2-(1SR,2SR-2-carboxycyclopropan-1-yl)-4-(4-methylphenyl)butanoic acid] |  |
| 38 nM | NC(CCc1ccc(Cl)c(Cl)c1)(C(=O)O)C1CC1C(=O)O (stereo not drawn) [Example 48, 2SR- and 2RS-2-amino-2-(1SR,2SR-2-carboxycyclopropan-1-yl)-4-(3,4-dichlorophenyl)butanoic acid] |  |
| 220 nM | NC(CCc1ccc(Cl)cc1Cl)(C(=O)O)C1CC1C(=O)O (stereo not drawn) [Example 47, 2SR- and 2RS-2-amino-2-(1SR,2SR-2-carboxycyclopropan-1-yl)-4-(2,4-dichlorophenyl)butanoic acid] |  |
| 35 ± 5 nM | N[C@](CC(c1ccccc1)c1ccccc1)(C(=O)O)[C@H]1C[C@@H]1C(=O)O [Example 64, 2S-2-amino-2-(1S,2S-2-carboxycyclopropan-1-yl)-4,4-diphenylbutanoic acid] |  |
| 610 nM | NC(CCc1ccc(C(F)(F)F)cc1)(C(=O)O)[C@H]1C[C@@H]1C(=O)O (mixture of isomers) [Example 56, 2SR- and 2RS-2-amino-2-(1SR,2SR-2-carboxycyclopropan-1-yl)-4-(4-(trifluoromethyl)phenyl)butanoic acid] |  |
| 230 nM | NC(CC1CCCCC1)(C(=O)O)[C@H]1C[C@@H]1C(=O)O (mixture of isomers) [Example 62, 2SR- and 2RS-2-amino-2-(1SR,2SR-2-carboxycyclopropan-1-yl)-3-cyclohexylpropanoic acid] |  |
| 55 nM | NC(CCc1cccc(Br)c1)(C(=O)O)C1CC1C(=O)O (stereo not drawn) [Example 38, 2SR- and 2RS-2-amino-2-(1SR,2SR-2-carboxycyclopropan-1-yl)-4-(3-bromophenyl)butanoic acid] |  |
| 570 nM | Cc1ccccc1CCC(N)(C(=O)O)[C@H]1C[C@@H]1C(=O)O (mixture of isomers) [Example 20, 2SR- and 2RS-2-amino-2-(1SR,2SR-2-carboxycyclopropan-1-yl)-4-(2-methylphenyl)butanoic acid] |  |
|  | N[C@@](CC(c1ccccc1)c1ccccc1)(C(=O)O)[C@@H]1C[C@H]1C(=O)O [Example 65, 2R 2-amino-2-(1R,2R-2-carboxycyclopropan-1-yl)-4,4-diphenylbutanoic acid] | ACPD-Sensitive [^3H]Glutamate Binding % Displacement at 10 µM [2]: (45%) |
